According to US20240316047A1, “INHIBITORS OF RNA HELICASE DHX9 AND USES THEREOF” (ACCENT THERAPEUTICS, INC., priority 2022, published 2024):

Biological target: Human recombinant DHX9 protein (Homo sapiens (Human), UniProt Q08211)
Experiment: DHX9 ATPase assay (ADP-Glo)
Format: biochemical
Settings: for IC50: read-out: DHX9 Biochemical Inflection Point

Human recombinant DHX9 protein, sequence (Q08211 whole entry): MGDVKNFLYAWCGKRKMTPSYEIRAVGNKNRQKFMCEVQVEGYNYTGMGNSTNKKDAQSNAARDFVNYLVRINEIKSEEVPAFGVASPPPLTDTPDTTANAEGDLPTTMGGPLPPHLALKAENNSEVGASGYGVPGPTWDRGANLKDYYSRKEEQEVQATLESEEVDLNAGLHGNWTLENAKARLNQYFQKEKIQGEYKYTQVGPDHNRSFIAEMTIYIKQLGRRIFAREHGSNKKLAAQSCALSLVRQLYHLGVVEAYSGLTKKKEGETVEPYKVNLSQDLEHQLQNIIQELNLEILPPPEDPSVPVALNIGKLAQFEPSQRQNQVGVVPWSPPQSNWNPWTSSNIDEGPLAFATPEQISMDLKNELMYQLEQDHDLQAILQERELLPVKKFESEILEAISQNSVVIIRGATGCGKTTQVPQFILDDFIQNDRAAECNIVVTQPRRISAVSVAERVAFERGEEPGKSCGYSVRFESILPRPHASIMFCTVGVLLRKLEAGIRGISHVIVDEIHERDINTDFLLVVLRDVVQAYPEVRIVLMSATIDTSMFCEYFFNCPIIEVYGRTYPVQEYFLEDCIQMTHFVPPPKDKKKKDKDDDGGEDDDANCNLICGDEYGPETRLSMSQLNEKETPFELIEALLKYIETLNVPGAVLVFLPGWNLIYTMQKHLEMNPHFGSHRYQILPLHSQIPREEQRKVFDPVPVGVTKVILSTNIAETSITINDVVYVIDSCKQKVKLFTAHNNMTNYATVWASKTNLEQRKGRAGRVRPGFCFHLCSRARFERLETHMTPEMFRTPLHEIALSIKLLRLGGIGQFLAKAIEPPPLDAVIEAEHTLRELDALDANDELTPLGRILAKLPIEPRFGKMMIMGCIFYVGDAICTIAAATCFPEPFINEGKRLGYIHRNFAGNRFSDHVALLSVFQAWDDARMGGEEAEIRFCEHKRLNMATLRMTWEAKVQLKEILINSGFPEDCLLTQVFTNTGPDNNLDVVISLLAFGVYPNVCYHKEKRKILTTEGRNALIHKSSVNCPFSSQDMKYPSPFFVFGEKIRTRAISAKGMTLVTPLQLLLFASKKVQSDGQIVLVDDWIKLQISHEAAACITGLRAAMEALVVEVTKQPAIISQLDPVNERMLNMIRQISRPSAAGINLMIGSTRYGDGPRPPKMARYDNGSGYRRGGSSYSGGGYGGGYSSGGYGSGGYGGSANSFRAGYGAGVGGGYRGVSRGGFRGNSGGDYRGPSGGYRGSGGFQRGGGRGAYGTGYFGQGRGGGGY

Structure (SMILES): Cc1sc(C(=O)Nc2cc(Cl)cc(NS(C)(=O)=O)c2)cc1-c1ncc(N2CC(F)(F)C2)cc1C#N [Example 715]
- DHX9 Biochemical Max Inhibition: 67.8
- IC50: 10.3 nM

Structure (SMILES): Cn1cc(C(=O)Nc2cc(Cl)cc(NS(C)(=O)=O)c2)cc1-c1c(F)cc(F)c[n+]1[O-] [Example 567]
- DHX9 Biochemical Max Inhibition: 77
- IC50: 58.4 nM

Structure (SMILES): Cc1sc(C(=O)Nc2cc(Cl)cc(NS(C)(=O)=O)c2)cc1-c1ncc(N2CC(F)(F)C2)cc1OC1CCC1 [Example 514]
- DHX9 Biochemical Max Inhibition: 73.8
- IC50: 73.3 nM

Structure (SMILES): Cn1nc(C(=O)Nc2cc(Cl)cc(NS(C)(=O)=O)c2)cc1-c1ccccc1OCc1ccccc1 [Example 138, 5-(2-(benzyloxy)phenyl)-N-(3-chloro-5-(methylsulfonamido)phenyl)-1-methyl-1H-pyrazole-3-carboxamide]
- DHX9 Biochemical Max Inhibition: 42.6%
- IC50: 13500 nM

Structure (SMILES): Cc1sc(C(=O)Nc2cc(Cl)cc(NS(C)(=O)=O)c2)cc1-c1ncc(F)cc1N1CCS(=O)(=O)CC1 [Example 503]
- DHX9 Biochemical Max Inhibition: 63.7
- IC50: 39.7 nM

Structure (SMILES): Cc1cc(C(=O)Nc2cc(Cl)cc(NS(C)(=O)=O)c2)cn1-c1ccc(N2CCC(F)(F)C2)cn1 [Example 396]
- DHX9 Biochemical Max Inhibition: 68.9
- IC50: 3.6 nM

Structure (SMILES): Cn1cc(C(=O)Nc2cc(Cl)cc(NS(C)(=O)=O)c2)cc1-c1ccccc1/C=C/c1cncc(F)c1 [Example 727]
- DHX9 Biochemical Max Inhibition: 55.3
- IC50: 9030 nM

Structure (SMILES): CS(=O)(=O)Nc1cc(Cl)cc(NC(=O)c2cc(-c3ncccc3OCc3cnco3)cs2)c1 [Example 215]
- DHX9 Biochemical Max Inhibition: 75.4%
- IC50: 4 nM

Structure (SMILES): CS(=O)(=O)Nc1cc(Cl)cc(NC(=O)c2cnn([C@H]3CCC[C@@H](O)C3)c2)c1 (single isomer, unassigned) [Example 152b]
- DHX9 Biochemical Max Inhibition: 69.9%
- IC50: 126 nM

Structure (SMILES): CC(C)(O)c1cc(C(=O)Nc2cc(Cl)cc(NS(C)(=O)=O)c2)cn1-c1ccccn1 [Example 650]
- DHX9 Biochemical Max Inhibition: 80.6
- IC50: 52.4 nM

Structure (SMILES): Cc1sc(C(=O)Nc2cc(Cl)cc(NS(C)(=O)=O)c2)cc1-c1ncc(N2CC(F)(F)C2)cc1OC(F)F [Example 536]
- DHX9 Biochemical Max Inhibition: 69.7
- IC50: 45.3 nM

Structure (SMILES): CS(=O)(=O)Nc1cc(Cl)cc(NC(=O)c2cnn(-c3ncccc3Oc3cccc(F)c3)c2)c1 [Example 427]
- DHX9 Biochemical Max Inhibition: 58.4
- IC50: 122 nM

Structure (SMILES): Cn1cc(C(=O)Nc2cc(Cl)cc(NS(C)(=O)=O)c2)cc1-c1ncc(C(F)(F)F)cn1 [Example 571]
- DHX9 Biochemical Max Inhibition: 71.3
- IC50: 21.1 nM

Structure (SMILES): COc1cccc2sc(C(=O)Nc3cc(Cl)cc(NS(C)(=O)=O)c3)cc12 [Example 321]
- DHX9 Biochemical Max Inhibition: 79.2%
- IC50: 13.5 nM

Structure (SMILES): CSc1cccnc1-n1cc(C(=O)Nc2cc(Cl)cc(NS(C)(=O)=O)c2)cn1 [Example 219]
- DHX9 Biochemical Max Inhibition: 62.3%
- IC50: 40.6 nM

Structure (SMILES): Cc1cc(C(=O)Nc2cc(Cl)cc(NS(C)(=O)=O)c2)cn1-c1ccc(C#N)cn1 [Example 425]
- DHX9 Biochemical Max Inhibition: 90
- IC50: 55.5 nM

Structure (SMILES): CC(C)(C)Oc1cnc(-c2csc(C(=O)Nc3cc(Cl)cc(NS(C)(=O)=O)c3)c2)nc1 [Example 379]
- DHX9 Biochemical Max Inhibition: 65.4%
- IC50: 41.8 nM

Structure (SMILES): Cn1cc(C(=O)Nc2cc(Cl)cc(NS(C)(=O)=O)c2)cc1-c1ncc(F)cn1 [Example 171, N-(3-chloro-5-(methylsulfonamido)phenyl)-5-(5-fluoropyrimidin-2-yl)-1-methyl-1H-pyrrole-3-carboxamide]
- DHX9 Biochemical Max Inhibition: 61.8%
- IC50: 14.5 nM

Structure (SMILES): Cc1sc(C(=O)Nc2cc(Cl)cc(NS(C)(=O)=O)c2)cc1-c1ccccc1 [Example 11]
- DHX9 Biochemical Max Inhibition: 62.7%
- IC50: 123 nM

Structure (SMILES): Cc1sc(C(=O)Nc2cc(Cl)cc(NS(C)(=O)=O)c2)cc1-c1ccc(OC(C)(C)C)cn1 [Example 380]
- DHX9 Biochemical Max Inhibition: 68.7%
- IC50: 33.5 nM

Structure (SMILES): CS(=O)(=O)Nc1cc(Cl)cc(NC(=O)c2cc(N3CCOCC3)cs2)c1 [Example 245]
- DHX9 Biochemical Max Inhibition: 71.4%
- IC50: 121 nM
